Experiment: Liposome formation and sizing after extrusion
Type: physicochemical
Description: Two mice studies have been performed for the evaluation of cationic lipids of the present invention, in comparison with DOTIM. In brief, the lipid combinations were tested as carriers for gene transfer by intravenous delivery in ICR female mice (25 g), and expression was determined using the plasmid p4119 containing the CAT reporter gene under the control of the HCMV promoter. The lipids were dissolved in a mixture of chloroform and methanol (1.1). Lipid films of cationic and neutral lipid at a 1:1 molar ratio were formed with a rotary evaporator. The films were hydrated with 5% dextrose in water (D5W) at room temperature and extruded through a series of membranes having pore sizes of 400 nm, 200 nm, and 50 nm.
DNA-liposome complexes were prepared at a 1:10 DNA:cationic lipid ratio (mg DNA per μmole cationic lipid) by adding the DNA, in a solution at 0.625 mg/mL concentration in D5W to the solution of liposomes, in an equal volume, with constant stirring, using a Hamilton Dilutor 540B (Hamilton, Reno, Nev.). The lipids used were MBN 246, 247, 248, 249, 250, 251 and 252 (FIG. 10). MBN 249 was used in a 1:10 ratio with cholesterol. MBN 250 was used in a 1:10 ratio with DLPE. The DNA solution was 0.3125 mg/mL DNA in D5W. […] Zeta potential was determined by a Zeta Plus, Zeta Potential Analyzer (Brookhaven Instruments Corp.).

liposome formation: forms liposomes easily
Substance: N,N-Dimethyl-N-(2,3-dihydroxypropanylo-N-(2,3-dioleyloxypropanyl)amonium Chloride [MBN305]

From patent US6649780B1, “Cationic lipids” (Valentis, Inc., priority 1998, dated 2003)
